Results as given in publication PMC8670397 (Bioorganic & medicinal chemistry, 2020).
pKi: −log10 of the molar value.

How the values were obtained:
D2R = conditions: similar to aripiprazole; cited from earlier work
[1] = cited from earlier work
5-HT7 receptor = 5-HT7 receptor (Homo sapiens, UniProt P34969)
5-HT1A receptor = 5-HT1A receptor (Homo sapiens, UniProt P08908)
D1 receptor = D1 receptor (Homo sapiens, UniProt P21728); test: biochemical
Sequence of D1 receptor (P21728 whole entry): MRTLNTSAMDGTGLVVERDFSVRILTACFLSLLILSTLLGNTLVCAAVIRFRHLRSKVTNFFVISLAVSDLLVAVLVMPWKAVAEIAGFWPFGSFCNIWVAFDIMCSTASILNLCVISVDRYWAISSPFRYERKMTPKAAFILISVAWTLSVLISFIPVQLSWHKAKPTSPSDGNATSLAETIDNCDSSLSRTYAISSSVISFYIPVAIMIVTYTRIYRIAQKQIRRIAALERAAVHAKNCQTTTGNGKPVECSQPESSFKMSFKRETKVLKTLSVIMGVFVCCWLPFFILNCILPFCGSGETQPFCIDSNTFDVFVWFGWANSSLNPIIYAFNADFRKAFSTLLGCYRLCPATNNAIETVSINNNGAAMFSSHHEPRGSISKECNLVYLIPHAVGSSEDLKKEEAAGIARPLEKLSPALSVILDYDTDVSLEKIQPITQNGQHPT

Sequence of 5-HT7 receptor (P34969 whole entry): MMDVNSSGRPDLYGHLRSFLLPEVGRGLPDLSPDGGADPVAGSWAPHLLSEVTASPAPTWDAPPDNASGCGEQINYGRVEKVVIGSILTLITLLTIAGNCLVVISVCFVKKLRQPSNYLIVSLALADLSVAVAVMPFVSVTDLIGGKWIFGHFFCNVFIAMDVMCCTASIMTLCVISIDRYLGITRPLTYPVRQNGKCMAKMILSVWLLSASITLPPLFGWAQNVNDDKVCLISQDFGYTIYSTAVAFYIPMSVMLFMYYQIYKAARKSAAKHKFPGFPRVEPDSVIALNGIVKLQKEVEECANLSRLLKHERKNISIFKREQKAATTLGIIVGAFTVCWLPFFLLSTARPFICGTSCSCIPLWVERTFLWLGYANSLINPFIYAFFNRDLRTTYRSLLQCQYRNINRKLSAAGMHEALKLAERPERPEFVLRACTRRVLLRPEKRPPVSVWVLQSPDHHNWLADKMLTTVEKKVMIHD
Sequence of 5-HT1A receptor (P08908 whole entry): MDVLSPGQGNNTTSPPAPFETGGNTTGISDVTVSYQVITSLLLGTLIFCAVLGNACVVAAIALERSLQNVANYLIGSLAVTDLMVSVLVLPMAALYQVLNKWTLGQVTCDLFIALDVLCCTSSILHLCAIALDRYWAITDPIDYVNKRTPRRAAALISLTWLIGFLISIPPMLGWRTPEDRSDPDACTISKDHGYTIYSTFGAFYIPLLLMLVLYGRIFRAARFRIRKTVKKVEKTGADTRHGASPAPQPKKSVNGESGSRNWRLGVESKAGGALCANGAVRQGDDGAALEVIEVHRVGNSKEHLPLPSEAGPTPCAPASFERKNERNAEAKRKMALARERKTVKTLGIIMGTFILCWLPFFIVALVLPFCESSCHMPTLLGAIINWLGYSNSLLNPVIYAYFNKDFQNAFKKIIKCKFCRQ

For `Fc1ccc(CCCCN2CCN(c3ccccn3)CC2)cc1` [Compound 5, 1-(4-(4-fluorophenyl)butyl)-4-(pyridin-2-yl)piperazine], the “signaling at the D2R” value (D2R) is given as “activates both G-protein and β-arrestin signaling” and the “blood brain barrier (BBB) permeability” value [1] is given as “high”.

With `Cc1ccc(N2CCN(CCCCc3ccc(F)cc3)CC2)nc1` [Compound 9, 1-(4-(4-fluorophenyl)butyl)-4-(5-methylpyridin-2-yl)piperazine] the “mean pKi ± SEM 5-HT7” value (5-HT7 receptor) was 7.2 ± 0.1.

For `O=C1c2ccc(F)cc2CC1CCN1CCCN(c2ccccn2)CC1` (stereo not drawn) [Compound 14], the “mean pKi ± SEM 5-HT1A” value (5-HT1A receptor) was 6.1 ± 0.1.

With `Fc1ccc(CCCCN2CCN(c3cccnc3)CC2)cc1.O=C(O)C(=O)O` [Compound 21, 1-(4-(4-fluorophenyl)butyl)-4-(pyridin-3-yl)piperazine oxalate] the “mean pKi ± SEM 5-HT7” value (5-HT7 receptor) was 6.63 ± 0.09 and the pKi (D1 receptor) was < 5.70.
